Test results: the CheMixHub viscosity set

Experiment: xn = mol fraction of the nth substance listed

CCNCC + CC(C)O
viscosity [mPa·s], 100 kPa
Details | 293.15 K | 298.15 K | 303.15 K | 308.15 K | 313.15 K | 318.15 K | 323.15 K
x1 = 0.0215 | 2.3 | 1.99 | 1.72 | 1.49 | 1.31 | 1.15 | 1.01
x1 = 0.0807 | 1.99 | 1.74 | 1.51 | 1.31 | 1.152 | 1.02 | 0.9
x1 = 0.1595 | 1.63 | 1.44 | 1.256 | 1.09 | 0.97 | 0.86 | 0.78
x1 = 0.2401 | 1.33 | 1.187 | 1.05 | 0.924 | 0.82 | 0.732 | 0.67
x1 = 0.3491 | 1.02 | 0.91 | 0.806 | 0.72 | 0.64 | 0.58 | 0.54
x1 = 0.4399 | 0.84 | 0.75 | 0.671 | 0.598 | 0.54 | 0.491 | 0.46
x1 = 0.5598 | 0.65 | 0.58 | 0.527 | 0.48 | 0.435 | 0.396 | 0.37
x1 = 0.6501 | 0.551 | 0.5 | 0.455 | 0.416 | 0.376 | 0.345 | 0.32
x1 = 0.7395 | 0.48 | 0.43 | 0.39 | 0.36 | 0.33 | 0.304 | 0.283
x1 = 0.8496 | 0.41 | 0.376 | 0.343 | 0.319 | 0.296 | 0.271 | 0.251
x1 = 0.94 | 0.36 | 0.336 | 0.315 | 0.293 | 0.274 | 0.257 | 0.243
x2 = 0.0137 | 0.33 | 0.314 | 0.298 | 0.282 | 0.267 | 0.251 | 0.238

CC(C)(C)O + CCO
303.2 K, 101.33 kPa
Details | viscosity [mPa·s]
x2 = 0.05 | 3.256
x2 = 0.1 | 3.156
x2 = 0.15 | 3.039
x2 = 0.2 | 2.914
x2 = 0.3 | 2.645
x2 = 0.4 | 2.36
x2 = 0.5 | 2.07
x2 = 0.6 | 1.793
x2 = 0.7 | 1.548
x2 = 0.8 | 1.336
x2 = 0.85 | 1.239
x2 = 0.9 | 1.147
x2 = 0.95 | 1.059
